From US11534457B2, “Use of dextran sulfate” (priority 2017, dated 2022)

Test system: severe traumatic brain injury (sTBI)
Experiment: sTBI in rats, brain gene expression arrays and pathway analysis (Example 9)
Format: in vivo, Male Wistar rats
Details: TBI + 5 mg/kg LMW-DS
Experimental: The experimental protocol used in this study was approved by the Ethical Committee of the Catholic University of Rome, according to international standards and guidelines for animal care. Male Wistar rats of 300-350 g body weight were fed with standard laboratory diet and water ad libitum in a controlled environment. As the anesthetic mixture, the animals received 35 mg/kg b.w. ketamine and 0.25 mg/kg body weight midazolam by i.p. injection. Severe traumatic brain injury (sTBI) was induced by dropping a 450 g weight from 2 m height on to the rat head that had been protected by a metal disk previously fixed on the skull, according to the “weight drop” impact acceleration model (Marmarou et al., A new model of diffuse brain injury in rats. Part I: Pathophysiology and biomechanics. J Neurosurg. 1994; 80: 291-300). […] At the end of each period of treatment, rats were anesthetized again and then immediately sacrificed.
LMW-DS (Tikomed AB) was provided at a stock concentration of 20 mg/ml and was kept in a temperature-monitored refrigerator at 4° C. LMW-DS aliquots were diluted to the appropriate dosing concentration in sterile saline prior to delivery of a single subcutaneous injection.
Three doses of LMW-DS were administered subcutaneously 30 minutes post-TBI. The animals were sacrificed at 2 days post-TBI. The animals were divided into the following subgroups:
Three doses of LMW-DS were administered subcutaneously 30 minutes post-TBI. The animals were sacrificed at 7 days post-TBI. The animals were divided into the following subgroups:
An in vivo craniectomy was performed on all animals during anesthesia. After carefully removing the rat's skull, the brain was exposed and removed with a surgical spatula and quickly dropped in RNALater and preserved at 4° C. for further processing.
RNA extraction and array processing was carried out by SourceBioscience. The arrays used were the Agilent Rat expression arrays.
Statistical analysis was carried out using the Metaboanalyst software package. Gene expression changes of 10% with a p<0.05 were regarded as significant.
Pathway analysis of the differentially regulated genes was carried out using the Ingenuity pathway analysis package. The analysis was performed with special reference to pathways and molecular processes and diseases associated with neurodegenerative disease, including dementia, Alzheimer's disease, ALS, TBI and stroke, and with scarring and fibrosis, including glaucoma and normal pressure hydrocephalus (NPH) after subarachnoid haemorrhage.

## low molecular weight dextran sulfate [LMW-DS]
2 days after TBI
  Diseases or functions annotation: Apoptosis: Activated
  Diseases or functions annotation: Behavior: Inhibited
  Diseases or functions annotation: Carcinoma: Inhibited
  Diseases or functions annotation: Cell death: Activated
  Diseases or functions annotation: Cell death of antigen presenting cells: Inhibited
  Diseases or functions annotation: Cell death of immune cells: Inhibited
  Diseases or functions annotation: Cell death of tumor cell lines: Inhibited
  Diseases or functions annotation: Cell movement: Inhibited
  Diseases or functions annotation: Cell movement of tumor cell lines: Inhibited
  Diseases or functions annotation: Cell proliferation of leukocyte cell lines: Inhibited
  Diseases or functions annotation: Cellular homeostasis: Inhibited
  Diseases or functions annotation: Chemotaxis: Inhibited
  Diseases or functions annotation: Concentration of prostaglandin: Inhibited
  Diseases or functions annotation: Development of vasculature: Inhibited
  Diseases or functions annotation: Digestive organ tumor: Inhibited
  Diseases or functions annotation: Digestive system cancer: Inhibited
  Diseases or functions annotation: Edema: Activated
  Diseases or functions annotation: Epithelial neoplasm: Inhibited
  Diseases or functions annotation: Extracranial solid tumor: Inhibited
  Diseases or functions annotation: Feeding: Inhibited
  Diseases or functions annotation: Growth of tumor: Inhibited
  Diseases or functions annotation: Hematologic cancer: Inhibited
  Diseases or functions annotation: Incidence of tumor: Inhibited
  Diseases or functions annotation: Leukocyte migration: Inhibited
  Diseases or functions annotation: Leukopoiesis: Inhibited
  Diseases or functions annotation: Locomotion: Inhibited
  Diseases or functions annotation: Lymphocyte homeostasis: Inhibited
  Diseases or functions annotation: Lymphocytic cancer: Inhibited
  Diseases or functions annotation: Lymphocytic neoplasm: Inhibited
  Diseases or functions annotation: Lymphopoiesis: Inhibited
  Diseases or functions annotation: Lymphoproliferative disorder: Inhibited
  Diseases or functions annotation: Malignant solid tumor: Inhibited
  Diseases or functions annotation: Metabolism of hormone: Inhibited
  Diseases or functions annotation: Migration of cells: Inhibited
  Diseases or functions annotation: Necrosis: Inhibited
  Diseases or functions annotation: Neoplasia of leukocytes: Inhibited
  Diseases or functions annotation: Non-melanoma solid tumor: Inhibited
  Diseases or functions annotation: Proliferation of hematopoietic progenitor cells: Inhibited
  Diseases or functions annotation: Quantity of cells: Inhibited
  Diseases or functions annotation: Quantity of epithelial tissue: Inhibited
  Diseases or functions annotation: Quantity of neuroglia: Inhibited
  Diseases or functions annotation: Resorption of bone: Inhibited
  Diseases or functions annotation: Secretion of molecule: Activated
  Diseases or functions annotation: Size of body: Inhibited
  Diseases or functions annotation: Synthesis of hormone: Inhibited
  Diseases or functions annotation: Transcription of RNA: Inhibited
  Diseases or functions annotation: Transport of molecule: Activated
  Diseases or functions annotation: Vasculogenesis: Inhibited
7 days after TBI
  Ingenuity canonical pathway: Acute Phase Response Signaling: Activated
  Ingenuity canonical pathway: Adrenomedullin signaling pathway: Inhibited
  Ingenuity canonical pathway: Cardiac Hypertrophy Signaling: Activated
  Ingenuity canonical pathway: Colorectal Cancer Metastasis Signaling: Inhibited
  Ingenuity canonical pathway: Dendritic Cell Maturation: Activated
  Ingenuity canonical pathway: ERK5 Signaling: Inhibited
  Ingenuity canonical pathway: ERK/MAPK Signaling: Activated
  Ingenuity canonical pathway: Endothelin-1 Signaling: Activated
  Ingenuity canonical pathway: Fcγ Receptor-mediated Phagocytosis in Macrophages and Monocytes: Activated
  Ingenuity canonical pathway: GNRH Signaling: Activated
  Ingenuity canonical pathway: HMGB1 Signaling: Activated
  Ingenuity canonical pathway: IL-1 Signaling: Activated
  Ingenuity canonical pathway: IL-6 Signaling: Activated
  Ingenuity canonical pathway: IL-8 Signaling: Activated
  Ingenuity canonical pathway: ILK Signaling: Activated
  Ingenuity canonical pathway: Leukocyte Extravasation Signaling: Activated
  Ingenuity canonical pathway: Neuroinflammation Signaling Pathway: Activated
  Ingenuity canonical pathway: Osteoarthritis Pathway: Inhibited
  Ingenuity canonical pathway: PI3K Signaling in B Lymphocytes: Activated
  Ingenuity canonical pathway: PKCθ Signaling in T Lymphocytes: Activated
  Ingenuity canonical pathway: PPAR Signaling: Inhibited
  Ingenuity canonical pathway: Phospholipase C Signaling: Activated
  Ingenuity canonical pathway: Production of Nitric Oxide and Reactive Oxygen Species in Macrophages: Activated
  Ingenuity canonical pathway: Protein Kinase A Signaling: Inhibited
  Ingenuity canonical pathway: Role of NFAT in Regulation of the Immune Response: Activated
  Ingenuity canonical pathway: Signaling by Rho Family GTPases: Activated
  Ingenuity canonical pathway: Synaptic Long Term Depression: Activated
  Ingenuity canonical pathway: Wnt/β-catenin Signaling: Inhibited
  Ingenuity canonical pathway: cAMP-mediated signaling: Inhibited
  Ingenuity canonical pathway: mTOR Signaling: Activated
  z score: Abdominal adenocarcinoma: 0.73
  z score: Abdominal cancer: −0.474
  z score: Abdominal carcinoma: −0.831
  z score: Abdominal neoplasm: 0.061
  z score: Adenocarcinoma: −0.155
  z score: Angiogenesis: 0.294
  z score: Apoptosis: −0.676
  z score: Apoptosis of tumor cell lines: −0.941
  z score: Bleeding: −2.118
  z score: Breast or colorectal cancer: −1.953
  z score: Breast or ovarian cancer: −1.953
  z score: Breast or pancreatic cancer: −1.026
  z score: Cancer: 0.905
  z score: Cancer of cells: 0.742
  z score: Cancer of secretory structure: 0.64
  z score: Carcinoma: −0.403
  z score: Cell cycle progression: 1.58
  z score: Cell death: 0.791
  z score: Cell death of epithelial cells: 1.993
  z score: Cell death of tumor cell lines: −0.811
  z score: Cell movement: 2.297
  z score: Cell movement of endothelial cells: 2.084
  z score: Cell movement of myeloid cells: 3.907
  z score: Cell movement of tumor cell lines: 1.492
  z score: Cell survival: 1.966
  z score: Cell viability: 1.879
  z score: Cell viability of tumor cell lines: 0.991
